Where only a bound is given, the exact number is not on record here.

This assay has as its system Aphis gossypii. Put plainly: Aphis gossypii killing test (Test Example 3). The format is in vivo. The note with it: 72 h, 500 ppm active ingredient, cucumber nursery plant with nymphs dipped, after 3 days, 25° C., read-out: percentage of dead insects. As to the method: [formula] The water-dispersible powder prepared in accordance with Formulation example 2 was diluted in water so that the concentration of the active ingredient was 500 ppm. A nursery plant of cucumber preliminarily inoculated with nymphs of Aphis gossypii was dipped in this liquid agent, and air-dried. The nursery plant of cucumber after the treatment was placed in a thermostatic chamber at 25° C., and the number of live insects was counted after 3 days, and the percentage of dead insects was determined by the calculation formula of numerical formula 1. The test was conducted singly.
On to `NC(=O)c1nn(-c2cccnc2)cc1O` [Compound A-0001, 4-hydroxy-1-(pyridine-3-yl)-1H-pyrazole-3-carboxamide], for which the pest or weed control at 500 ppm is no less than 50%.
For `CC(C)(C)CCOc1cn(-c2cccnc2)nc1C(N)=O` [Compound A-0017, 4-(3,3-dimethylbutoxy)-1-(pyridine-3-yl)-1H-pyrazole-3-carboxamide] the value was no less than 50%; for `NC(=O)c1nn(-c2cccnc2)cc1OCC(F)(F)C(F)(F)F` [Compound A-0044, 4-(2,2,3,3,3-pentafluoropropoxy)-1-(pyridine-3-yl)-1H-pyrazole-3-carboxamide], no less than 50%; for `NC(=O)c1nn(-c2cccnc2)cc1OC(F)(F)C(F)OC(F)(F)F` (centres unmarked) [Compound A-0071, 1-(pyridine-3-yl)-4-[1,1,2-trifluoro-2-(trifluoromethoxy)ethoxy]-1H-pyrazole-3-carboxamide], no less than 50%.
In the case of `NC(=O)c1nn(-c2cccnc2)cc1OCc1ccccc1` [Compound A-0240, 4-benzyloxy-1-(pyridine-3-yl)-1H-pyrazole-3-carboxamide] it was no less than 50%; in that of `CC(C)C(=O)NC(=O)c1nn(-c2cccnc2)cc1OC(F)(F)C(F)OC(F)(F)F` (centres unmarked) [Compound A-2403, N-isobutyryl-1-(pyridine-3-yl)-4-[1,1,2-trifluoro-2-(trifluoromethoxy)ethoxy]-1H-pyrazole-3-carboxamide], no less than 50%.
In the case of `NC(=S)c1nn(-c2cccnc2)cc1OC(F)(F)C(F)OC(F)(F)F` (centres unmarked) [Compound A-5436, 1-(pyridine-3-yl)-4-[1,1,2-trifluoro-2-(trifluoromethoxy)ethoxy]-1H-pyrazole-3-carbothioamide] it was no less than 50%; in that of `NC(=O)c1nn(-c2ccc[n+]([O-])c2)cc1OC(F)(F)C(F)OC(F)(F)F` (centres unmarked) [Compound A-5510, 3-(3-carbamoyl-4-[1,1,2-trifluoro-2-(trifluoromethoxy)ethoxy]-1H-pyrazole-1-yl)pyridine-1-oxide], no less than 50%.

Source of the values: patent publication US11993578B2, “Pyrazole-3-carboxylic acid amide derivative and pest control agent” (KUMIAI CHEMICAL INDUSTRY CO., LTD., priority 2017, dated 2024).
